Assay results reported in patent US4409210A, “Antibiotic compound” (priority 1982, dated 1983).
*1 amine or outer side, *2 acyl side, *3 side chain or, on linkers, in order; H or OH if unused. Where a SMILES comes first, the peptide text is derived from it. Bridges are numbered along the chain shown (N, C = ends). [ ]: non-standard residue; d: D form. ξ: configuration not given here. X2 = CCCCCCCCCCCC(CC(=O)[*:1])O[*:2]; ξAsp(3ξ-OH) = NC(C(=O)O)C(O)C(=O)O; X1 = O=C(C1C(O)CCN1[*:1])[*:2]

Columns and labels:
Assay type in all cases: cell-based
[1] = system: Veillonella alcalescens A21914-1; test: MIC, serial two-fold dilution method (anaerobic)
[2] = system: Bacteroides fragilis A20926; test: MIC, serial two-fold dilution method (anaerobic)
[3] = system: Bacteroides fragilis A20929; test: MIC, serial two-fold dilution method (anaerobic)
[4] = system: Escherichia coli NIHJ; test: MIC, serial two-fold dilution method (aerobic)
[5] = system: Propionibacterium acnes A22650; test: MIC, serial two-fold dilution method (anaerobic)
[6] = system: Staphylococcus aureus A9601; test: MIC, serial two-fold dilution method (aerobic)
[7] = system: Proteus mirabilis A9554; test: MIC, serial two-fold dilution method (aerobic)
[8] = system: Clostridium cylindrosporum A9562; test: MIC, serial two-fold dilution method (anaerobic)
[9] = system: Veillonella parvula A20010; test: MIC, serial two-fold dilution method (anaerobic)
[10] = system: Staphylococcus aureus 209P; test: MIC, serial two-fold dilution method (aerobic)
[11] = system: Staphylococcus aureus A20701; test: MIC, serial two-fold dilution method (aerobic)
[12] = system: Fusobacterium varium ATCC 8501; test: MIC, serial two-fold dilution method (anaerobic)
[13] = system: Propionibacterium acnes A21933; test: MIC, serial two-fold dilution method (anaerobic)
[14] = system: Bacteroides fragilis A20928-1; test: MIC, serial two-fold dilution method (anaerobic)
[15] = system: Clostridium perfringens A22787; test: microbe, parasite or virus in culture
[16] = system: Staphylococcus aureus A20610; test: MIC, serial two-fold dilution method (aerobic)
[17] = system: Fusobacterium necrophorum A20013; test: MIC, serial two-fold dilution method (anaerobic)
[18] = system: Micrococcus flavus D-12; test: MIC, serial two-fold dilution method (aerobic)
[19] = system: Bacteroides fragilis A22695; test: MIC, serial two-fold dilution method (anaerobic)
[20] = system: Staphylococcus aureus A20394; test: MIC, serial two-fold dilution method (aerobic)
[21] = system: Peptostreptococcus intermedius A21881; test: MIC, serial two-fold dilution method (anaerobic)
[22] = system: Clostridium difficile A21675; test: MIC, serial two-fold dilution method (anaerobic)
Procedure: (§1) The minimum inhibitory concentration (MIC) of Bu-2517 was determined for a variety of aerobic and anaerobic bacteria by the serial two-fold dilution method using a multi-inoculating apparatus. Mueller-Hinton agar was generally used for aerobic bacteria, GC medium (Eiken) for fastidious aerobic organisms such as streptococci, Neisseria and Haemophilus species, and GAM agar medium (Nissui) for anaerobic bacteria. The inoculum size was adjusted to 10^6 CFU/ml for streptococci, Neisseria and Haemophilus species, 10^4 for other aerobic bacteria and 10^7 -10^8 for all anaerobic organisms. Amphomycin, ampicillin, chloramphenicol, clindamycin, erthromycin, kanamycin and vancomycin were used as reference antibiotics.

[23] = system: Clostridium septicum A21869; test: MIC, serial two-fold dilution method (anaerobic)
Procedure: as §1

[24] = system: Clostridium chauvoei A9561; test: MIC, serial two-fold dilution method (anaerobic)
Procedure: as §1

[25] = system: Clostridium difficile A21972; test: MIC, serial two-fold dilution method (anaerobic)
Procedure: as §1

[26] = system: Clostridium acidiurici A9560; test: MIC, serial two-fold dilution method (anaerobic)

CCCCCCCCCCCC1CC(=O)N2CCCC2C(=O)NC(CO)C(=O)N2CCCC2C(=O)NC(CCCNC(=N)N)C(=O)NC(C(O)C(=O)O)C(=O)NC(CO)C(=O)N2CCC(O)C2C(=O)NC(C(O)C(=O)O)C(=O)O1 (stereo not shown) [Bu-2517] (PSPR[ξAsp(3ξ-OH)]S[X1][ξAsp(3ξ-OH)]; linker N-C via X2; configuration not given here)
< 0.05 µg/mL: minimum inhibitory concentration (MIC) ([18]; Micrococcus flavus D-12, Mueller-Hinton agar, inoculum 10^4)
3.1 µg/mL: minimum inhibitory concentration (MIC) ([3]; Bacteroides fragilis A20929, GAM agar medium, inoculum 10^7-10^8) | minimum inhibitory concentration (MIC) ([15]; Clostridium perfringens A22787, GAM agar medium, inoculum 10^7-10^8) | minimum inhibitory concentration (MIC) ([21]; Peptostreptococcus intermedius A21881, GAM agar medium, inoculum 10^7-10^8) | minimum inhibitory concentration (MIC) ([24]; Clostridium chauvoei A9561, GAM agar medium, inoculum 10^7-10^8)
1.6 µg/mL: minimum inhibitory concentration (MIC) ([1]; Veillonella alcalescens A21914-1, GAM agar medium, inoculum 10^7-10^8) | minimum inhibitory concentration (MIC) ([6]; Staphylococcus aureus A9601, Mueller-Hinton agar, inoculum 10^4) | minimum inhibitory concentration (MIC) ([8]; Clostridium cylindrosporum A9562, GAM agar medium, inoculum 10^7-10^8) | minimum inhibitory concentration (MIC) ([9]; Veillonella parvula A20010, GAM agar medium, inoculum 10^7-10^8) | minimum inhibitory concentration (MIC) ([10]; Staphylococcus aureus 209P, Mueller-Hinton agar, inoculum 10^4) | minimum inhibitory concentration (MIC) ([11]; Staphylococcus aureus A20701, Mueller-Hinton agar, inoculum 10^4) | minimum inhibitory concentration (MIC) ([13]; Propionibacterium acnes A21933, GAM agar medium, inoculum 10^7-10^8) | minimum inhibitory concentration (MIC) ([16]; Staphylococcus aureus A20610, Mueller-Hinton agar, inoculum 10^4) | minimum inhibitory concentration (MIC) ([20]; Staphylococcus aureus A20394, Mueller-Hinton agar, inoculum 10^4) | minimum inhibitory concentration (MIC) ([22]; Clostridium difficile A21675, GAM agar medium, inoculum 10^7-10^8) | minimum inhibitory concentration (MIC) ([23]; Clostridium septicum A21869, GAM agar medium, inoculum 10^7-10^8) | minimum inhibitory concentration (MIC) ([25]; Clostridium difficile A21972, GAM agar medium, inoculum 10^7-10^8) | minimum inhibitory concentration (MIC) ([26]; Clostridium acidiurici A9560, GAM agar medium, inoculum 10^7-10^8)
25 µg/mL: minimum inhibitory concentration (MIC) ([2]; Bacteroides fragilis A20926, GAM agar medium, inoculum 10^7-10^8) | minimum inhibitory concentration (MIC) ([14]; Bacteroides fragilis A20928-1, GAM agar medium, inoculum 10^7-10^8)
0.8 µg/mL: minimum inhibitory concentration (MIC) ([5]; Propionibacterium acnes A22650, GAM agar medium, inoculum 10^7-10^8)
50 µg/mL: minimum inhibitory concentration (MIC) ([12]; Fusobacterium varium ATCC 8501, GAM agar medium, inoculum 10^7-10^8)
> 100 µg/mL: minimum inhibitory concentration (MIC) ([4]; Escherichia coli NIHJ, Mueller-Hinton agar, inoculum 10^4) | minimum inhibitory concentration (MIC) ([7]; Proteus mirabilis A9554, Mueller-Hinton agar, inoculum 10^4) | minimum inhibitory concentration (MIC) ([17]; Fusobacterium necrophorum A20013, GAM agar medium, inoculum 10^7-10^8) | minimum inhibitory concentration (MIC) ([19]; Bacteroides fragilis A22695, GAM agar medium, inoculum 10^7-10^8)

CN[C@H](CC(C)C)C(=O)N[C@H]1C(=O)N[C@@H](CC(N)=O)C(=O)N[C@H]2C(=O)N[C@H]3C(=O)N[C@H](C(=O)N[C@H](C(=O)O)c4cc(O)cc(O)c4-c4cc3ccc4O)[C@H](O)c3ccc(c(Cl)c3)Oc3cc2cc(c3O[C@@H]2O[C@H](CO)[C@@H](O)[C@H](O)[C@H]2O[C@H]2C[C@](C)(N)[C@H](O)[C@H](C)O2)Oc2ccc(cc2Cl)[C@H]1O [Vancomycin]
0.8 µg/mL: MIC ([3]; Bacteroides fragilis, A20929, read-out: minimum inhibitory concentration (MIC)) | MIC ([5]; Cutibacterium acnes, A22650, read-out: minimum inhibitory concentration (MIC)) | MIC ([6]; Staphylococcus aureus, A9601, read-out: minimum inhibitory concentration (MIC)) | MIC ([8]; Clostridium cylindrosporum, A9562, read-out: minimum inhibitory concentration (MIC)) | MIC ([9]; Veillonella parvula, A20010, read-out: minimum inhibitory concentration (MIC)) | MIC ([11]; Staphylococcus aureus, A20701, read-out: minimum inhibitory concentration (MIC)) | MIC ([13]; Cutibacterium acnes, A21933, read-out: minimum inhibitory concentration (MIC)) | MIC ([15]; Clostridium perfringens, A22787, read-out: minimum inhibitory concentration (MIC)) | MIC ([16]; Staphylococcus aureus, A20610, read-out: minimum inhibitory concentration (MIC)) | MIC ([22]; Clostridioides difficile, A21675, read-out: minimum inhibitory concentration (MIC)) | MIC ([23]; Clostridium septicum, A21869, read-out: minimum inhibitory concentration (MIC)) | MIC ([24]; Clostridium chauvoei, A9561, read-out: minimum inhibitory concentration (MIC)) | MIC ([26]; Gottschalkia acidurici, A9560, read-out: minimum inhibitory concentration (MIC))
0.4 µg/mL: MIC ([10]; Staphylococcus aureus, 209P, read-out: minimum inhibitory concentration (MIC)) | MIC ([20]; Staphylococcus aureus, A20394, read-out: minimum inhibitory concentration (MIC))
> 100 µg/mL: MIC ([4]; Escherichia coli, read-out: minimum inhibitory concentration (MIC)) | MIC ([7]; Proteus mirabilis, A9554, read-out: minimum inhibitory concentration (MIC)) | MIC ([17]; Fusobacterium necrophorum, A20013, read-out: minimum inhibitory concentration (MIC))
3.1 µg/mL: MIC ([2]; Bacteroides fragilis, A20926, read-out: minimum inhibitory concentration (MIC)) | MIC ([14]; Bacteroides fragilis, A209281, read-out: minimum inhibitory concentration (MIC))
0.2 µg/mL: MIC ([18]; Micrococcus flavus, D12, read-out: minimum inhibitory concentration (MIC))
6.3 µg/mL: MIC ([12]; Fusobacterium varium, ATCC8501, read-out: minimum inhibitory concentration (MIC))
1.6 µg/mL: MIC ([1]; Veillonella parvula, A219141, read-out: minimum inhibitory concentration (MIC)) | MIC ([21]; Peptostreptococcus, A21881, read-out: minimum inhibitory concentration (MIC)) | MIC ([25]; Clostridioides difficile, A21972, read-out: minimum inhibitory concentration (MIC))
25 µg/mL: MIC ([19]; Bacteroides fragilis, A22695, read-out: minimum inhibitory concentration (MIC))
